Source: US9707267B2, “Beta-turn peptidomimetic cyclic compounds for treating dry eye” (Mimetogen Pharmaceuticals, Inc., priority 2008, dated 2017)
Where “and” joins values, the source holds several entries; their conditions need not be identical. Equal entries are not always repeated.

Experiments:
[1] = tested on: Scopolamine Induced Rat Dry Eye Model; test: Scopolamine induced rat dry eye model, corneal staining (Example 5); format: in vivo; conditions: for Corneal Staining: score 0 to 4, ± SD
Description: (§1) Dry eye was induced using scopolamine hydrobromide (Sigma-Aldrich, St. Louis, Mo.), which was continuously and systemically delivered to the animals via an osmotic pump (2ML4 Alzet®; CedarLane, Burlington, Ontario) filled with scopolamine and implanted subcutaneously in the mid dorsal area between the scapulae. Scopolamine was delivered for a twenty-eight day period at 12.5 mg/day, which translated to 30.0±1.5 mg/kg via osmotic pump.
(§2) Treatments for G2-G6 continued daily for seventeen days (up to an including day twenty-one). Thereafter, treatments were terminated but the study continued for another week. During treatment, each animal was anesthetized in an isoflurane chamber. Once asleep, each animal received a 5 μL topical instillation of test article into the lower conjunctival sac of both eyes using a calibrated micropipette. If a clinical endpoint was also being tested, the test article was topically instilled at the end of the testing.
Immediately following TBUT assessment, the clinical signs of corneal dryness were evaluated by fluorescein staining of the cornea and was tested on day 13 (after 8 daily treatments), day 21 (after 16 daily treatments), and day 28 (after treatment was stopped for 7 days). A drop of a 0.2% sodium fluorescein solution made up in sterile saline was instilled in the upper conjunctival sac of the anaesthetized animal. The cornea was thereafter observed under blue light using a Portable Slit Lamp ophthalmoscope with blue cobalt filter (Reichert Ophthalmic Instruments, Depew, N.Y.) two to three minutes after fluorescein instillation. For each animal, the punctate fluorescein-stained area of the cornea was recorded in a masked fashion. The score of this test was graded from 0 to 4, where 0 is equal to no staining, 1 is less than 25% surface staining, 2 is 25-50% surface staining, 3 is 50-75% surface staining, and 4 is greater than 75% surface staining.

[2] = tested on: Scopolamine Induced Rat Dry Eye Model; test: Scopolamine induced rat dry eye model, mucin in tear fluid washings, ELLA (Example 5); format: in vivo; conditions: for Tear Mucin: ± SD
Description: as §1, §2
Tear fluid washings were collected from all six groups of rats on day 12 (after 7 daily treatments), day 19 (after 14 daily treatments) and day 28 (after treatment was stopped for 7 days) after instillation of 5 μL sterile saline in the lower conjunctival sac of the anaesthetized animal. The lids were blinked gently to mix the tear film with the saline. The diluted tear fluid was collected with a 5 μL volume glass capillary tube (Drummond Scientific Co, Broomhall, Pa.) by capillary action from the tear meniscus in the lateral canthus. Approximately 4-5 μL were routinely collected. In very dry eyes, a second 5 μL aliquot of saline was instilled before collection.
The concentrations of mucin glycoprotein in the diluted tear fluid washings were determined by an enzyme-linked lectin assay (ELLA). A sample containing 3 μg total protein was diluted to 100 μL in carbonate buffer pH 9.2 and transferred to a 96-well polystyrene microtiter plate (Corning Life Sciences #2592, Fisher Scientific, Nepean, Ontario). A dilution series of bovine submaxillary mucin (Sigma, St. Louis, Mo.) was included on each plate as the standard. The plates were coated by evaporation at 37° C. overnight. After, the plates were washed three times with wash buffer [PBS containing 0.3% BSA, 0.05% Tween-20] then blocked for nonspecific binding with PBS containing 3% BSA and 0.05% Tween-20 at 37° C. for one hour. The wells were rinsed three times in wash buffer, and then incubated in 2 μg/mL biotinylated UEA-1 diluted in wash buffer (Vector Labs, Burlingame, Calif.) at 37° C. for one hour. The wells were rinsed three times in wash buffer, and then incubated in 1 μg/mL HRP-conjugated neutravidin diluted in wash buffer (Pierce, Rockford, Ill.) at 37° C. for one hour. After the wells were rinsed three times in wash buffer the color development was performed with TMB (Promega, Madison, Wis.) and stopped with 0.5N Sulfuric acid. The concentration of mucin in the tear fluid washings was calculated as the ng mucin divided by the volume of tear fluid washing in μL that gave 3 μg total protein.

cultured goblet cells = test: Goblet cell proliferation, Alamar Blue (Example 2); format: cell-based, rat; conditions: serum-free media
Description: The culturing of conjunctival goblet cells from explant cultures was as previously described in Shatos, M. et al., “Isolation, Characterization, and Propagation of Rat Conjunctival Goblet Cells In Vitro,” IOVS 42:1455-1464 (2001), the entire content of which is incorporated herein by reference. The tissue was finely minced and individual pieces were anchored onto scored 6-well cultures dishes in 0.5 mL of complete RPMI-1640 (supplemented with 10% FBS, 2 mM glutamine and 100 μg/mL penicillin-streptomycin) and incubated at 37° C. in a humidified 5% CO2-atmosphere. Explant cultures were refed every 2 days. Within a few days, goblet cells migrated from the pieces and began to proliferate. After approximately one week, the tissue plugs were removed and the goblet cells were allowed to grow to confluence. […]
Cell proliferation was measured using Alamar Blue from Biosource (Invitrogen Corporation, Carlsbad, Calif.) according to the manufacture's protocol. […] After 24 hours, 10% Alamar Blue was added for 6 hours and the absorbance was read at 570 and 600 nm on a Benchmark Plus (Biorad). The percentage of Alamar Blue reduction was calculated according to the manufacture's instructions. […]

[3] = 0.00053% topical 1× daily Days 5-21, Day 28 (7 days after treatment stopped)
[4] = 0.4% topical 1× daily Days 5-21, Day 28 (7 days after treatment stopped)
[5] = 1% dose vs untreated and saline control groups
[6] = 1.0% topical 1× daily Days 5-21, Day 28 (7 days after treatment stopped)
[7] = 2.5% topical 1× daily Days 5-21, Day 28 (7 days after treatment stopped)

For “NGF: nerve growth factor (recombinant human), positive control”, the “Corneal Staining” value ([1]; 0.00053% topical 1× daily Days 5-21, Day 13) was 2.6 ± 0.5 Score, the “Corneal Staining” value ([1]; 0.00053% topical 1× daily Days 5-21, Day 21) was 2.3 ± 0.6 Score and the “Corneal Staining” value [1, 3] was 2.2 ± 0.3 Score. The “Tear Mucin” value ([2]; 0.00053% topical 1× daily Days 5-21, Day 12) was 3.0 ± 2.3 ng/µL, the “Tear Mucin” value ([2]; 0.00053% topical 1× daily Days 5-21, Day 19) was 6.8 ± 3.8 ng/µL and the “Tear Mucin” value [2, 3] was 2.4 ± 2.0 ng/µL. The “goblet cell proliferation (in words)” value (cultured goblet cells; NGF 10 pM to 10 nM, up to day four) was “did not increase proliferation”.
In the case of `NCCCC[C@@H]1NC(=O)[C@H](CCC(=O)O)NC(=O)c2cc([N+](=O)[O-])ccc2OCCC(C(=O)NCC(=O)O)NC1=O` (stereo partly shown) [Compound D3], the “Corneal Staining” value ([1]; 0.4% topical 1× daily Days 5-21, Day 13) is reported as 2.7 ± 0.4 Score, the “Corneal Staining” value ([1]; 0.4% topical 1× daily Days 5-21, Day 21) is reported as 2.1 ± 0.4 Score and the “Corneal Staining” value [1, 4] is reported as 2.4 ± 0.7 Score. The “changes in corneal staining at Day 28 as compared to Day 13 (in words)” value [1, 5] was “statistically significantly improved corneal staining”, the “Corneal Staining” value ([1]; 1.0% topical 1× daily Days 5-21, Day 13) was 2.8 ± 0.6 Score and the “Corneal Staining” value ([1]; 1.0% topical 1× daily Days 5-21, Day 21) was 2.3 ± 0.6 Score. The “Corneal Staining” value [1, 6] was 1.3±0.3 Score, the “Corneal Staining” value ([1]; 2.5% topical 1× daily Days 5-21, Day 13) was 2.1 ± 0.7 Score and the “Corneal Staining” value ([1]; 2.5% topical 1× daily Days 5-21, Day 21) was 2.1 ± 1.0 Score. The “Corneal Staining” value [1, 7] was 2.6 ± 0.4 Score, the “Tear Mucin” value ([2]; 0.4% topical 1× daily Days 5-21, Day 12) was 2.7 ± 2.2 ng/µL and the “Tear Mucin” value ([2]; 0.4% topical 1× daily Days 5-21, Day 19) was 6.8 ± 3.2 ng/µL. For the same compound, the “Tear Mucin” value [2, 4] was 4.4 ± 3.8 ng/µL, the “changes in mucin production at Day 28 as compared to Day 12 (in words)” value [2, 5] was “statistically significantly increased mucin production” and the “Tear Mucin” value ([2]; 1.0% topical 1× daily Days 5-21, Day 12) was 3.3 ng/µL and 3.3 ± 1.9 ng/µL. For the same compound, the “Tear Mucin” value ([2]; 1.0% topical 1× daily Days 5-21, Day 19) was 9.1 ng/µL and 9.1 ± 5.1 ng/µL, the “Tear Mucin” value [2, 6] was 6.8 ng/µL and 6.8 ± 4.9 ng/µL and the “Tear Mucin” value ([2]; 2.5% topical 1× daily Days 5-21, Day 12) was 1.6 ± 0.9 ng/µL. For the same compound, the “Tear Mucin” value ([2]; 2.5% topical 1× daily Days 5-21, Day 19) was 6.5 ± 2.4 ng/µL, the “Tear Mucin” value [2, 7] was 3.0 ± 1.1 ng/µL and the “goblet cell proliferation (in words)” value (cultured goblet cells; concentrations up to 100 μM, by day four) was “did not stimulate goblet cell proliferation”.
